How the values were obtained:
[1] = Rectal absorption in vivo (monkeys): plasma level of the antibiotic after suppository; conditions: for Cmax: both sexes, monkey, plasma, read-out: Cmax Bereich
Description: Für diesen Versuch wurden männliche und weibliche erwachsene Affen (Papio anubis und Papio hamadryas) im Gewicht vom 12-27 kg verwendet. die über Nacht vor der Verabreichung des Antibiotikums fasten gelassen wurden, dann durch i.m.-Injektionen von Ketamin-Hydrochlorid vor der Verabreichung des Antibiotikums sediert wurden. Aus den nachstehend beschriebenen Formulierungen wurden Suppositorien hergestellt die den Tieren verabreicht wurden. Die Rektalöffnungen wurden dann mit Klebeband verschlossen, um ein Herausdrücken der Suppositorienmasse zu vermeiden.
Zur Messung der Resorption des Antibiotikums in den Blutstrom wurden Blutproben aus der Femoralregion vor der Verabreichung des Antibiotikums und 15, 30, 60, 120, 240, 360 und 480 Minuten danach entnommen. Proben wurden zentrifugiert und wie oben beschrieben vermessen. Die Resultate sind in Tabelle 3 zusammengestellt: Tabelle 3

[2] = Oral absorption in vivo (monkeys): plasma concentration of Ceftriaxon after enteric-coated hard gelatin capsules by gavage; parameters: species or system Papio anubis und Papio hamadryas; conditions: Kontrollwert: 300 mg Ceftriaxon-Na in the same capsule without absorption enhancer
Description: Erwachsene Affen (Papio anubis und Papio hamadryas) im Gewicht von 12-30 kg wurden über Nacht fasten gelassen, dann durch i.m.-Injektion von Ketaminhydrochlorid vor der Verabreichung des Antibiotikums sediert. Jeder Affe erhielt vier Hartgelatinekapseln durch Schlundsonde mit der folgenden Zusammensetzung:
Die Kapseln waren mit einem Ueberzug von Polyvinylacetatphthalat (etwa 8% des Kapselgewichtes) versehen.
Die Plasmakonzentration von Ceftriaxon wurde vor der Verabreichung und 10, 20, 40, 60, 120, 180 und 240 Minuten danach bestimmt.

[3] = Enteral absorption in vivo (rats): plasma level of the antibiotic after intraduodenal injection, agar plate bioassay; conditions: rat, 20 mg/kg, enteral (duodenum), Dosis = 5 mg/0,5 ml
Procedure: Weibliche Ratten im Gewicht von etwa 250 g wurden über Nacht fasten gelassen und mit Metofan anästhesiert. Die Antibiotika wurden in Lösung mit oder ohne Resorptionsverstärker nach Bauchschnitt in das Duodenum unterhalb des Magenausgangs injiziert. Für Vergleichszwecke wurde die Lösung alternativ intravenös in die Schwanzvene appliziert. Die Antibiotika wurden in Wasser gelöst, so dass die Lösungen (mit oder ohne Verstärker) 20 mg/kg, etwa 5 mg pro Ratte, enthielten.
Die Konzentration des Antibiotikums im Plasma der Ratte wurde nach verschiedenen Zeitintervallen nach intravenöser oder enteraler Verabreichung bestimmt. Blutproben wurden aus der Schwanzvene des Versuchstiers vor der Verabreichung des Antibiotikums und 5, 10, 20, 40, 60, 120, 240 und 360 Minuten danach entnommen, danach zentrifugiert und das Plasma bis zur Analyse eingefroren.
Antibiotika, die nicht an Plasma gebunden waren, wurden mit Wasser verdünnt und gegen in Wasser hergestellte Standards geprüft. Für gebundene Antibiotika wurde der Einfluss der Proteinbindung eliminiert durch Verdünnen aller Standardlösungen und Proben im gesammelten Plasma. Im Fall von Ceftriaxon und Cefazolin wurde der Effekt der Bindung dadurch berücksichtigt, dass Plasmaproben mit Acetonitril mit einem Verdünnungsfaktor 1:12 deproteinisiert und gegen eine Standardkurve in Wasser verdünnt gemessen wurden. Antibiotikaspiegel wurden wie in Tabelle 1 angegeben auf Agarplatten ermittelt. Tabelle 1
Die Platten wurden bei 37°C über Nacht bebrütet und die Hemmzonen auf die nächsten […] abgelesen. Die Berechnungen wurden mittels einer Autoassaymaschine (Giles Scientific, Inc., New York) vorgenommen. Vergleiche J.V. Bennett et al., Applied Microbiology 14, 170-177 (1966).

[4] = 500 mg, rectal suppository, Mit Resorptionsverstärker, Formulierung C (500 mg antibiotic, Labrasol 250 mg, Caprylsäure 200 mg)
[5] = rectal suppository, Mit Resorptionsverstärker, Formulierung D (500 mg antibiotic, Labrasol 250 mg, Caprylsäure 100 mg, Natriumcaprylat 100 mg)
[6] = rectal, Kontrolle ohne Resorptionsverstärker
[7] = rectal suppository, Mit Resorptionsverstärker, Formulierung C (500 mg antibiotic, Labrasol 250 mg, Caprylsäure 200 mg)

Row | SMILES | Cmax [1, 4] [ng/mL] | Cmax [1, 5] [ng/mL] | Cmax [1, 6] [ng/mL] | % Bioverfügbarkeit [1, 7] [%] | % Bioverfügbarkeit [1, 5] [%] | % Bioverfügbarkeit [1, 6] [%] | also measured
1 | CO[C@@]1(NC(=O)C2SC(=C(C(N)=O)C(=O)O)S2)C(=O)N2C(C(=O)O)=C(CSc3nnnn3C)CS[C@@H]21 (some centres unmarked) [Cefotetan] | 4300 to 21100 | 2500 to 61500 | 2400 to 10100 | 11.4 ± 7.4 | 24.1 ± 12.8 | 4.9 ± 3.1 | Cmax Bereich ([1]; rectal, Kontrolle ohne Resorptionsverstärker, listed as Cefotetran): 3400 to 10100 ng/mL
2 | CO/N=C(\C(=O)N[C@@H]1C(=O)N2C(C(=O)O)=C(CSc3nc(=O)c(=O)[nH]n3C)CS[C@H]12)c1csc(N)n1 [Ceftriaxon-Na, Ceftriaxon-Natrium] | – | – | – | – | – | – | Bioverfügbarkeit [2]: 0%
3 | CO/N=C(\C(=O)N[C@@H]1C(=O)N2C(C(=O)O)=C(CSc3nc(=O)c(=O)[nH]n3C)CS[C@H]12)c1csc(N)n1 [Ceftriaxon] | 21600 to 46600 | 16300 to 38300 | 300 to 9000 | 17.3 ± 4.8 | 17.1 ± 5.0 | 4.3 ± 2.8 | Cmax ([3]; female, plasma, other: intraduodenal injection (enteral), Labrasol + Caprylsäure + Natriumcaprylat, weight ratio 4:1:1): 52200 ± 22500 ng/mL; Cmax ([3]; female, plasma, other: intraduodenal injection (enteral), Labrasol + Caprylsäure, weight ratio 2:1): 57000 ± 10200 ng/mL
4 | CC1(C)S[C@@H]2[C@H](NC(=O)Cc3ccccc3)C(=O)N2[C@H]1C(=O)O [Penicillin G] | – | – | – | – | – | – | Cmax ([3]; in vivo, Labrasol + Caprylsäure + Natriumcaprylat, weight ratio 4:1:1): 2900 ± 1600 ng/mL; Cmax ([3]; in vivo, Labrasol + Caprylsäure, weight ratio 2:1): 7200 ± 700 ng/mL
5 | CN[C@H](CC(C)C)C(=O)N[C@H]1C(=O)N[C@@H](CC(N)=O)C(=O)N[C@H]2C(=O)N[C@H]3C(=O)N[C@H](C(=O)N[C@H](C(=O)O)c4cc(O)cc(O)c4-c4cc3ccc4O)[C@H](O)c3ccc(c(Cl)c3)Oc3cc2cc(c3O[C@@H]2O[C@H](CO)[C@@H](O)[C@H](O)[C@H]2O[C@H]2C[C@](C)(N)[C@H](O)[C@H](C)O2)Oc2ccc(cc2Cl)[C@H]1O [Vancomycin] | – | – | – | – | – | – | Cmax ([3]; female, in vivo, Labrasol + Caprylsäure + Natriumcaprylat, weight ratio 4:1:1): 5300 ± 2100 ng/mL; Cmax ([3]; female, in vivo, Labrasol + Caprylsäure, weight ratio 2:1): 8000 ± 2300 ng/mL

From patent EP0418674A1, “Pharmaceutical preparations for enhanced absorption of antibacterial compounds” (priority 1989, dated 1991)
